# Reference: patent US12582638B2, “Pharmaceutical composition for treating cancer, containing mTOR-signaling inhibitor as active ingredient” (KOREA ADVANCED INSTITUTE OF SCIENCE AND TECHNOLOGY, priority 2020, dated 2026)
# Key:
# Assay in all cases: Cell viability, CellTiterGlo, 72 hours
# Assay type in all cases: cell-based
# A498 = conditions: Homo sapiens, A498 cells, Kidney
# Method: (§1) In addition to the colorectal cells, 120 cancer cell lines treated with various concentrations of lomitapide were assayed for viability. To analyze cell viability, the cells were incubated with lomitapide at 37° C. for 72 hours in a 5% or 10% CO2 atmosphere and then equilibrated at room temperature for 1 hour, followed by addition of CellTiterGlo reagent (Promega). One hour later, luminescence was measured to calculate cell viability (%). The 120 cell lines were purchased from ATCC (American Type Culture Collection, Virginia, USA).
# A549 = conditions: Homo sapiens, A549 cells, Lung
# Method: as §1
# AsPC-1 = conditions: Homo sapiens, ASPC1, AsPC-1 cells, Pancreas
# Method: as §1
# COR-L279 = conditions: Homo sapiens, COR-L279 cells, Lung
# Method: as §1
# Caki-1 = conditions: Homo sapiens, Caki-1 cells, Kidney
# Method: as §1
# DLD-1 = conditions: Homo sapiens, DLD-1 cells, Colon
# Method: as §1
# EFM-19 = conditions: Homo sapiens, EFM-19 cells, Breast
# Method: as §1
# EFO-27 = conditions: Homo sapiens, EFO-27 cells, Ovary
# Method: as §1
# H1299 = conditions: Homo sapiens, NCI-H1299, H1299 cells, Lung
# Method: as §1
# H2228 = conditions: Homo sapiens, NCI-H2228, H2228 cells, Lung
# Method: as §1
# Hep3B2.1-7 = Hep3B2.1-7 cells, Liver
# Method: as §1
# JIMT-1 = conditions: Homo sapiens, JIMT-1 cells, Breast
# Method: as §1
# Jurkat = conditions: Homo sapiens, Jurkat cells, Blood
# Method: as §1
# K562 = conditions: Homo sapiens, K562 cells, Blood
# Method: as §1
# KG-1 = conditions: Homo sapiens, KG-1 cells, Blood
# Method: as §1
# KMS-12-BM = conditions: Homo sapiens, KMS-12-BM cells, Blood
# Method: as §1
# LP-1 = conditions: Homo sapiens, LP-1 cells, Blood
# Method: as §1
# MCAS = MCAS cells, Ovary
# Method: as §1
# MDA MB 231 = conditions: Homo sapiens, MDA MB 231 cells, Breast
# Method: as §1
# MDA MB 435 = conditions: Homo sapiens, MDA MB 435 cells, Skin
# Method: as §1
# MKN-1 = conditions: Homo sapiens, MKN-1 cells, Stomach
# Method: as §1
# NCI-H1048 = conditions: Homo sapiens, NCI-H1048 cells, Lung
# Method: as §1
# NCI-H1838 = conditions: Homo sapiens, NCI-H1838 cells, Lung
# Method: as §1
# NCI-H2009 = conditions: Homo sapiens, NCI-H2009 cells, Lung
# Method: as §1
# NCI-H2110 = NCI-H2110 cells, Lung
# Method: as §1
# NCI-H292 = conditions: Homo sapiens, NCI-H292 cells, Lung
# Method: as §1
# NCI-N87 = conditions: Homo sapiens, NCI-N87 cells, Stomach
# Method: as §1
# OCI-AML3 = conditions: Homo sapiens, OCI-AML-3, OCI-AML3 cells, Blood
# Method: as §1
# OPM-2 = conditions: Homo sapiens, OPM-2 cells, Blood
# Method: as §1
# RERF-LC-MS = RERF-LC-MS cells, Lung
# Method: as §1
# RKO = conditions: Homo sapiens, RKO cells, Colon
# Method: as §1
# RL95-2 = conditions: Homo sapiens, RL95-2 cells, Endometrium
# Method: as §1
# SCLC-21H = conditions: Homo sapiens, SCLC-21H cells, Lung
# Method: as §1
# SK-LU-1 = conditions: Homo sapiens, SK-LU-1 cells, Lung
# Method: as §1
# SK-N-MC = conditions: Homo sapiens, SK-N-MC cells, Brain
# Method: as §1
# SK-N-SH = conditions: Homo sapiens, SK-N-SH cells, Brain
# Method: as §1
# SK-OV3 = conditions: Homo sapiens, SK-OV-3, SK-OV3 cells, Ovary
# Method: as §1
# SNU840 = conditions: SNU-840, SNU840 cells, Ovary
# Method: as §1
# Saos-2 EC = conditions: Homo sapiens, Saos-2 EC cells, Bone
# Method: as §1
# T98G = conditions: Homo sapiens, T98G cells, Brain
# Method: as §1
smiles,measurement,setting,value
"O=C(NC1CCN(CCCCC2(C(=O)NCC(F)(F)F)c3ccccc3-c3ccccc32)CC1)c1ccccc1-c1ccc(C(F)(F)F)cc1 [lomitapide, N-(2,2,2-trifluoroethyl)-9-[4-[4-[[[4′-(trifluoromethyl)[1,1′-biphenyl]2-yl]carbonyl]amino]-1-piperidinyl]butyl]-9H-fluoren-9-carboxamide]",IC50,A498,2.9 µM
same,IC50,A549,3.6 µM
same,IC50,AsPC-1,3.6 µM
same,IC50,COR-L279,2.7 µM
same,IC50,Caki-1,3.6 µM
same,IC50,DLD-1,4.5 µM
same,IC50,EFM-19,3.6 µM
same,IC50,EFO-27,4 µM
same,IC50,H1299,4.8 µM
same,IC50,H2228,5.3 µM
same,IC50,Hep3B2.1-7,2.7 µM
same,IC50,JIMT-1,3.3 µM
same,IC50,Jurkat,3 µM
same,IC50,K562,2.1 µM
same,IC50,KG-1,5.7 µM
same,IC50,KMS-12-BM,3.5 µM
same,IC50,LP-1,5.4 µM
same,IC50,MCAS,4.5 µM
same,IC50,MDA MB 231,3.2 µM
same,IC50,MDA MB 435,3 µM
same,IC50,MKN-1,3.7 µM
same,IC50,NCI-H1048,5.5 µM
same,IC50,NCI-H1838,4 µM
same,IC50,NCI-H2009,3.3 µM
same,IC50,NCI-H2110,3.3 µM
same,IC50,NCI-H292,3 µM
same,IC50,NCI-N87,3.3 µM
same,IC50,OCI-AML3,2.1 µM
same,IC50,OPM-2,4.4 µM
same,IC50,RERF-LC-MS,3.2 µM
same,IC50,RKO,3.3 µM
same,IC50,RL95-2,3.2 µM
same,IC50,SCLC-21H,3 µM
same,IC50,SK-LU-1,4.6 µM
same,IC50,SK-N-MC,2.4 µM
same,IC50,SK-N-SH,3.2 µM
same,IC50,SK-OV3,3.3 µM
same,IC50,SNU840,2.3 µM
same,IC50,Saos-2 EC,3.6 µM
same,IC50,T98G,3.8 µM
